From patent US10702572B2, “Methods and compounds to suppress viral genome release and packaging” (Carnegie Mellon University, priority 2015, dated 2020)
Where two headings read alike, the source gives them in different places. Where no end group is shown, it is not given here.

Legend:
[1] = LD50 (species not stated); assay type: in vivo; settings: conversion in brackets
[2] = cited from earlier work
[3] = system: cell membrane; settings: not told; cited from earlier work
[4] = system: HSV-1, HSV-2, VZV, HCMV; assay: Antiviral screening study of condensing compounds; assay type: cell-based; settings: result in words
Experimental: PAMAM Dendrimer G0, branched polyethylenimine (bPEI), Arg5+, DAB-AM-4, and DAB-AM-8 were utilized as test compounds. These compounds are described above.
Monolayers of HFF cells were prepared in six-well plates and incubated at 37° C. for 2 d to allow the cells to reach confluency. Media was then aspirated from the wells and 0.2 ml of virus was added to each of three wells to yield 20-30 plaques in each well. The virus was allowed to adsorb to the cells for 1 h and the plates were agitated every 15 minutes. Compounds were diluted in assay media consisting of MEM with Earl's salts supplemented with 2% FBS, L-glutamine, penicillin, and gentamycin. Solutions ranging from 300 μM to 0.1 μM were added to duplicate wells and the plates were incubated for various times, depending on the virus used. For HSV-1 and -2, the monolayers were then stained with 1% crystal violet in 20% methanol and the unbound dye removed by washing with dH2O. For all other assays, the cell monolayer was stained with 1% Neutral Red solution for 4 h then the stain was aspirated and the cells were washed with PBS. For all assays, plaques were enumerated using a stereomicroscope and the concentration of compound that reduced plaque formation by 50% (EC50) was interpolated from the experimental data.

[5] = system: phage λ; assay: Intracapsid DNA transition temperature by ITC and SAXS; design: species or system bacteriophage λ; settings: 78% WT DNA length phage λ, 20 mM EDTA added to 10 mM MgCl2 Tris-buffer
From the text: WT bacteriophage λ cI857, with a genome length of 48.5 kb was produced by thermal induction of lysogenic E. coli strain AE1 derived from the 52773 strain. Two phage λ mutants with shorter genome lengths (78 and 94% of the WT DNA length) were produced using a similar procedure. The receptor was the LamB protein purified from pop 154, a strain of E. coli K12 in which the LamB gene has been transduced from Shigella sonnei 3070. Phage and LamB purification details are described in Evilevitch A., et al., Osmotic pressure inhibition of DNA ejection from phage. Proc. Natl. Acad. Sci. U.S.A. 2003; 100:9292-9295 and Ivanovska I., et al., Internal DNA pressure modifies stability of WT phage. Proc. Natl. Acad. Sci. U.S.A. 2007; 104:9603-9608.
All calorimetric measurements were performed using the MicroCal iTC200 system manufactured by GE Healthcare, Life Sciences. […] J. Mol. Biol. 2010; 395:1079-1087.
Small angle X-ray scattering (SAXS) measurements were carried out at the 12-ID B station at the Advanced Photon Source at Argonne National Laboratory. A 12-KeV X-ray beam was used to illuminate the sample with an overall scattering vector q range from 0.006 to 0.850 Å-1. A total of 120 μl of phage solution (˜5×1013 pfu/ml) was injected into a flow-through glass capillary and the solution was oscillated during the SAXS measurement with a flow rate of 10 μl/s. Forty scans with 1 s X-ray exposure time were collected and averaged for each sample. A buffer solution of the dialysis buffer for phage samples was measured using the same SAXS setup, which was further subtracted as the background. After the background subtraction, the scattered intensity I versus q was plotted and the DNA peak region was truncated from 0.18 Å-1 to 0.33 Å-1. This DNA diffraction peak was fitted with a Gaussian curve plus a linear background using function (1), where q0 is the peak center, w is the peak width, A0 is the peak area, k is the slope of the linear background and c is the offset.
(§1) [formula] […] Single-Molecule Fluorescence Measurements of Phage Ejection Ensemble Kinetics.
ITC and SAXS assays were used to determine DNA transition temperatures for WT λ-DNA length phage in MgCl2 Tris-buffer with MgCl2 concentrations varied between 5 and 50 mM, see FIGS. 3A-3C. The intracapsid DNA transition occurs at temperature T*, corresponding to either a discontinuity in the linear dependence of ΔHej on temperature (FIG. 3A) or to an abrupt change in the linear decay of the DNA diffraction peak area versus temperature measured by SAXS (FIG. 3B). DNA transition temperatures as a function of Mg-concentration determined by both techniques are in good agreement with each other and are summarized in FIG. 3C. […] However, the inventors have previously shown that at DNA packing density in phage λ, the screening effect of Mg-ions will become progressively smaller with increasing Mg-concentration due to the counter-ion saturation (Evilevitch A., et al., Effects of salt concentrations and bending energy on the extent of ejection of phage genomes. Biophys. J. 2008; 94:1110-1120). Furthermore, if the Mg ion concentration continues to increase, the counterions are forced into regions on the helices that begin to increase the effective repulsions between packaged DNA strands. […]

[6] = system: packaged viral DNA in the capsid; settings: low-salt buffer, Mg2+ removed by EDTA
From the text: as §1
Phage particles were imaged using a Nikon 2000E2 microscope with a spinning disk confocal scan head (Yokagawa Industries, Tokyo, Japan).

O=C(O)[C@@H](S)[C@@H](S)C(=O)O [DMSA, meso-2,3-Dimercaptosuccinic acid]
LD50 as concentration [1]: ~27.5 mM
LD50 ([2]; species and route not given): 5011 mg/kg

RRRRR [Arg5+]
permeation of the cell membrane [3]: permeate the cell membrane
antiviral activity in the screening study [4]: showed antiviral activity

O=C(O)CN(CCN(CC(=O)O)CC(=O)O)CC(=O)O [EDTA, Ethylenediaminetetraacetic acid]
DNA transition temperature T* [5]: ~36 °C
DNA ejection from the capsid [6]: essentially stalled
infection [6]: no infection is observed

O=C(O)CN(CCOCCOCCN(CC(=O)O)CC(=O)O)CC(=O)O [EGTA, Ethylene glycol-bis(2-aminoethylether)-N,N,N′,N′-tetraacetic acid]
LD50 as concentration [1]: ~9.5 mM
LD50 ([2]; in vivo): 3587 mg/kg
